Results on four molecules are retold here after article PMC5603865, “Synthesis, In-Vitro Activity and Metabolic Properties of Quinocetone and Structurally Similar Compounds” (Iranian Journal of Pharmaceutical Research : IJPR, 2017).

Values after ≈ are worked out from the molar mass of the structure shown.

One assay has as its system normal human Chang liver cells. The assay can be described thus: In-vitro cytotoxicity, MTT cell proliferation assay. Conditions: Homo sapiens, Chang liver, 24 h, 24 h incubation, concentration reducing viable cells by 50%. Type of assay: cell-based. The method, then:
(§1) All test compounds were dissolved in dimethyl sulfoxide (DMSO, Sigma, USA) and then diluted in Dulbecco’s modified Eagle’s medium (DMEM, Gibco, USA) at desired concentrations for cell proliferation analyses or diluted in nutrient broth medium for antimicrobial susceptibility testing respectively. The final concentration of DMSO in the DMEM culture medium was under 0.1% (v:v).
(§2) HepG2 and normal human Chang liver cells were obtained from the Institute of Biochemistry and Cell Biology, Shanghai Institutes for Biological Sciences, Chinese Academy of Sciences (Shanghai, China). HepG2 and normal human Chang liver cells were cultured at 37˚Cwith 5% CO2 in DMEM supplemented with 2% L-glutamine, 10% fetal bovine serum (Gibco, USA), 100 U/mL penicillin and 100 […] (Gibco, USA).
(§3) The methodology for evaluating the cytotoxicity inhibitory activity of various test compounds towards cell proliferation has been described previously ([11], [17]). Cell proliferation inhibitory analyses were carried out using the 3-(4,5-dimethylthiazole-2-yl)-2,5-diphenyl tetrazolium bromide (MTT, Sigma, USA) assay. Briefly, cancers HepG2 and normal human Chang liver cells were harvested and resuspended in fresh growth medium. A 100 μL cell suspension (5 × 10^4 cells/mL) was aliquoted into each well of a 96-well culture plate. After 12 h incubation, the medium was replaced with fresh medium containing various concentrations of test compounds. The cells were then incubated for another 24 h. At the end of exposure, 10 μL of MTT solution (5 mg/mL) was added, and the cells were incubated for 4 h at 37 °C. The cells were treated with 100 μL DMSO, and absorbance was recorded at 570 nm using a microplate ELISA reader (ELX800, Bio-Tek, USA). All experiments were performed at least thrice, and data were presented as the mean of sixplicate wells ± standard deviation (SD). Cell inhibition was calculated as follows:
(§4) (OD of control group − OD of experimental group) / (OD of control group − OD of blank group) ×100%. The IC50 value for a compound was calculated using SPSS.
Consider `CCOC(=O)c1c(C)[n+]([O-])c2ccccc2[n+]1[O-]` [Compound 8, 3-methyl-2-quinoxaline-2-carboxylate-1,4-dioxide], for which it took 217 ± 3.52 µM to reach half-maximal inhibition (IC50).
For `Cc1c(C(=O)/C=C/c2ccc(N(C)C)cc2)[n+]([O-])c2ccccc2[n+]1[O-]` [Compound 3h], half-maximal inhibition (IC50) required 509 ± 14.8 µM.
Same read-out and setting: with `Cc1c(C(=O)/C=C/c2ccco2)[n+]([O-])c2ccccc2[n+]1[O-]` [Compound 6, 3-methyl-2-(3-fura-2-propenoyl)-quinoxaline-1,4-dioxide] the figure was 299 ± 6.72 µM; with `CCOC(=O)c1nc2ccccc2nc1C` [Compound 9, 3-methyl-2-quinoxaline-2-carboxylate], 610 ± 18.4 µM.

The next assay deals with HepG2 cells. Described as above. Type of assay: cell-based, human. Conditions: Homo sapiens, HepG2, 24 h, 24 h incubation, concentration reducing viable cells by 50%. The method, then:
as §1, §2, §3, §4
As for `CCOC(=O)c1c(C)[n+]([O-])c2ccccc2[n+]1[O-]` [Compound 8, 3-methyl-2-quinoxaline-2-carboxylate-1,4-dioxide], the IC50 – broadly, the midpoint of a concentration-inhibition curve – turned out to be 217 ± 3.48 µM.
On the same count and under the same terms, with `Cc1c(C(=O)/C=C/c2ccc(N(C)C)cc2)[n+]([O-])c2ccccc2[n+]1[O-]` [Compound 3h] the figure was 395 ± 14.6 µM; with `Cc1c(C(=O)/C=C/c2ccco2)[n+]([O-])c2ccccc2[n+]1[O-]` [Compound 6, 3-methyl-2-(3-fura-2-propenoyl)-quinoxaline-1,4-dioxide], 240 ± 34.8 µM.
Still for that read-out and setting: with `CCOC(=O)c1nc2ccccc2nc1C` [Compound 9, 3-methyl-2-quinoxaline-2-carboxylate] the figure was 547 ± 7.71 µM.

In another assay the test system is Clostridium perfringen CVCC52,8604. The assay can be described thus: In-vitro antibacterial activity, MIC by broth dilution (anaerobic chamber). Type of assay: cell-based. Conditions: Clostridium, 24 h. As for the experimental part:
as §1
(§5) The preliminary antibacterial activities were obtained for selected compounds against various bacteria, namely: Staphyloccocus aureus ATCC25923 (Gram-positive bacteria), Clostridium perfringen CVCC52,8604 (anaerobes bacteria), Salmonella pullorum (Gram-negative bacteria), Escherichia coli ATCC25922 (Gram negative bacteria) and Aeromonas hydrophila (Gram-negative bacteria) were used in the study. Each strain was cultured in appropriate broth medium. Clostridium perfringen was incubated in an anaerobic chamber. The minimum inhibitory concentration (MIC) for each test compound was estimated using the broth dilution method. The MIC’s was determined for each strain/compound pairs that presented antimicrobial activity. The method was modified from Mohapatra›s methods ([14], [15]). Cell suspensions were prepared in 2 mL of liquid medium with concentrations of various tests of compounds in 15 mL culture tubes by inoculation with 100 μL of 10^6 cfu/mL from each stock. The cultures were incubated at 28 °C or 37 °C for 24 h. Tubes showing no visible turbidity represented the MIC, and subsequently, were inoculated on the right side of the 9cm sterile nutrient agar plates without various test compounds and incubated for 24 h (Clostridium perfringen was incubated in an anaerobic chamber.). The least concentration, at which no growth was observed, represented the minimum bactericidal concentration (MBC) ([16]).
For orientation: Broth dilution looks for growth in wells or tubes with falling amounts of substance.
Take `CCOC(=O)c1c(C)[n+]([O-])c2ccccc2[n+]1[O-]` [Compound 8, 3-methyl-2-quinoxaline-2-carboxylate-1,4-dioxide]: the minimum inhibitory concentration (MIC) (commonly the least concentration at which growth counts as inhibited) came out at 4.96 µg/mL (≈ 20 µM).
Still for that read-out and setting: with `Cc1c(C(=O)/C=C/c2ccc(N(C)C)cc2)[n+]([O-])c2ccccc2[n+]1[O-]` [Compound 3h] the figure was 447 µg/mL (≈ 1280 µM).
On the same count and under the same terms, with `Cc1c(C(=O)/C=C/c2ccco2)[n+]([O-])c2ccccc2[n+]1[O-]` [Compound 6, 3-methyl-2-(3-fura-2-propenoyl)-quinoxaline-1,4-dioxide] the figure was 94.7 µg/mL (≈ 320 µM); with `CCOC(=O)c1nc2ccccc2nc1C` [Compound 9, 3-methyl-2-quinoxaline-2-carboxylate], more than 500 µg/mL.

Another assay concerns Gram-positive and Gram-negative bacteria. In words: Antibacterial activity class based on the MIC results.
Conditions: not given
Type of assay: cell-based. As for the experimental part:
as §5
In this study, activity of quinoxaline-1, 4-dioxides and their deoxygenations was tested against selected Gram-negative bacteria (Escherichia coli, Salmonella pullorum and Aeromonas hydrophila), Gram-positive bacteria (Staphyloccocus aureus and Clostridium perfringen). The in-vitro antibacterial activity was based on the MIC results: Strong antibacterial activity, if MIC is less than 50 μg/mL; Moderate, if MIC is in between 50 and 250 μg/mL; No activity, if MIC is more than 500 μg/mL.
As for `CCOC(=O)c1c(C)[n+]([O-])c2ccccc2[n+]1[O-]` [Compound 8, 3-methyl-2-quinoxaline-2-carboxylate-1,4-dioxide], the “antibacterial activity against Gram-positive and Gram-negative bacteria” value is reported as “strong or moderate activity”.
Regarding `Cc1c(C(=O)/C=C/c2ccc(N(C)C)cc2)[n+]([O-])c2ccccc2[n+]1[O-]` [Compound 3h], the “antibacterial activity against Gram-positive and Gram-negative bacteria” value was “little or no activity”.
Still for that read-out and setting: under `Cc1c(C(=O)/C=C/c2ccco2)[n+]([O-])c2ccccc2[n+]1[O-]` [Compound 6, 3-methyl-2-(3-fura-2-propenoyl)-quinoxaline-1,4-dioxide] stands “strong or moderate activity”; under `CCOC(=O)c1nc2ccccc2nc1C` [Compound 9, 3-methyl-2-quinoxaline-2-carboxylate], “little or no activity”.

For the next assay, the system named is Salmonella pullorum. In words: In-vitro antibacterial activity, MIC by broth dilution. Conditions: Salmonella enterica, PULLORUM, 24 h. Type of assay: cell-based. As for the experimental part:
as §1, §5
Turning to `CCOC(=O)c1c(C)[n+]([O-])c2ccccc2[n+]1[O-]` [Compound 8, 3-methyl-2-quinoxaline-2-carboxylate-1,4-dioxide], the MIC worked out at 19.8 µg/mL (≈ 79.9 µM).
`Cc1c(C(=O)/C=C/c2ccc(N(C)C)cc2)[n+]([O-])c2ccccc2[n+]1[O-]` [Compound 3h] gave an MIC of more than 500 µg/mL.
Molecule `Cc1c(C(=O)/C=C/c2ccco2)[n+]([O-])c2ccccc2[n+]1[O-]` [Compound 6, 3-methyl-2-(3-fura-2-propenoyl)-quinoxaline-1,4-dioxide] gave an MIC of 189 µg/mL (≈ 639 µM).
The same measure, in the same setting: under `CCOC(=O)c1nc2ccccc2nc1C` [Compound 9, 3-methyl-2-quinoxaline-2-carboxylate] stands more than 500 µg/mL.

A further assay relates to Staphyloccocus aureus ATCC25923. The description is as above. Type of assay: cell-based. The settings on record: 24 h, read-out: MIC values Staphyloccocus aureus ATCC25923. The method, then: as §1, §5
Regarding `Cc1c(C(=O)/C=C/c2ccc(N(C)C)cc2)[n+]([O-])c2ccccc2[n+]1[O-]` [Compound 3h], the MIC stood at 447 µg/mL (≈ 1280 µM).
As for `Cc1c(C(=O)/C=C/c2ccco2)[n+]([O-])c2ccccc2[n+]1[O-]` [Compound 6, 3-methyl-2-(3-fura-2-propenoyl)-quinoxaline-1,4-dioxide], the MIC amounted to 94.7 µg/mL (≈ 320 µM).

Staying with this assay, now noted: broth dilution, 24 h; read-out: MIC values Staphyloccocus aureus ATCC25923.
For the molecule `CCOC(=O)c1c(C)[n+]([O-])c2ccccc2[n+]1[O-]` [Compound 8, 3-methyl-2-quinoxaline-2-carboxylate-1,4-dioxide], the MIC stood at 39.7 µg/mL (≈ 160 µM).
Turning to `CCOC(=O)c1nc2ccccc2nc1C` [Compound 9, 3-methyl-2-quinoxaline-2-carboxylate], the MIC is more than 500 µg/mL.

In a further assay the test system is Aeromonas hydrophila. The assay is described as above. Type of assay: cell-based. Conditions: Aeromonas hydrophila, 24 h, read-out: MIC values Aeromonas hydrophila. As for the experimental part: as §1, §5
Regarding `Cc1c(C(=O)/C=C/c2ccco2)[n+]([O-])c2ccccc2[n+]1[O-]` [Compound 6, 3-methyl-2-(3-fura-2-propenoyl)-quinoxaline-1,4-dioxide], the MIC is 94.7 µg/mL (≈ 320 µM).

The same assay, now with this note: Aeromonas hydrophila; broth dilution, 24 h; read-out: MIC values Aeromonas hydrophila.
In the case of `CCOC(=O)c1c(C)[n+]([O-])c2ccccc2[n+]1[O-]` [Compound 8, 3-methyl-2-quinoxaline-2-carboxylate-1,4-dioxide], the MIC is 39.7 µg/mL (≈ 160 µM).
Turning to `Cc1c(C(=O)/C=C/c2ccc(N(C)C)cc2)[n+]([O-])c2ccccc2[n+]1[O-]` [Compound 3h], the MIC was found to be 223 µg/mL (≈ 639 µM).
Same read-out and setting: with `CCOC(=O)c1nc2ccccc2nc1C` [Compound 9, 3-methyl-2-quinoxaline-2-carboxylate] the figure was 138 µg/mL (≈ 639 µM).

The next assay has as its system Escherichia coli ATCC25922. The assay is described as above. Conditions: Escherichia coli, ATCC25922, 24 h, read-out: MIC values Escherichia coli ATCC25922. Type of assay: cell-based. As for the experimental part:
as §1, §5
On to `CCOC(=O)c1c(C)[n+]([O-])c2ccccc2[n+]1[O-]` [Compound 8, 3-methyl-2-quinoxaline-2-carboxylate-1,4-dioxide], for which the MIC worked out at 4.96 µg/mL (≈ 20 µM).
For the molecule `Cc1c(C(=O)/C=C/c2ccc(N(C)C)cc2)[n+]([O-])c2ccccc2[n+]1[O-]` [Compound 3h], the MIC was 447 µg/mL (≈ 1280 µM).
Same read-out and setting: under `Cc1c(C(=O)/C=C/c2ccco2)[n+]([O-])c2ccccc2[n+]1[O-]` [Compound 6, 3-methyl-2-(3-fura-2-propenoyl)-quinoxaline-1,4-dioxide] stands 94.7 µg/mL (≈ 320 µM).

The assay is the same for the next values; noted with them: Escherichia coli, ATCC25922; broth dilution, 24 h; read-out: MIC values Escherichia coli ATCC25922.
In the case of `CCOC(=O)c1nc2ccccc2nc1C` [Compound 9, 3-methyl-2-quinoxaline-2-carboxylate], the MIC was more than 500 µg/mL.
